Values of other authors as cited in patent publication US20100016430A1, “MODIFIED COCONUT OILS WITH BROAD ANTIMICROBIAL SPECTRUM” (MALAYSIAN AGRICULTERAL RESEARCH AND DEVELOPMENT IN, priority 2005, published 2010).

Columns and labels:
C. albicans = settings: Bergsson et al. 2001
C. trachomatis = settings: for Effect on C. trachomatis: 10 mM concentration
H. pylori = settings: 10 mM for 30 min at 37° C.
coliform = settings: 250 and 500 ppm in naturally contaminated cottage cheese
Pseudomonas spp = settings: 250 and 500 ppm in naturally contaminated cottage cheese

CCCCCCCCCCCCCC(=O)O [myristic acid]
Killing of C. albicans / antimicrobial effect (C. albicans): do not shown antimicrobial effect

CCCCCCCCCCCC(=O)O [lauric acid]
Inactivation of C. trachomatis (C. trachomatis; 5 mM for 5 min): greater than 100,000 fold
Killing of C. albicans / antimicrobial effect (C. albicans): fastest and most effective killing

CCCCCCCCCC(=O)O [capric acid]
Killing of C. albicans / antimicrobial effect (C. albicans): fastest and most effective killing

CCCCCC/C=C\CCCCCCCC(=O)O [palmitoleic acid]
Killing of C. albicans / antimicrobial effect (C. albicans): do not shown antimicrobial effect

CCCCCCCC(=O)OCC(O)CO (stereo not drawn) [monocaprylin]
Effect on C. trachomatis (C. trachomatis): negligible effect

CCCCCCCC/C=C\CCCCCCCC(=O)O [oleic acid]
Killing of C. albicans / antimicrobial effect (C. albicans): do not shown antimicrobial effect

CCCCCCCCCC(=O)OCC(O)CO (stereo not drawn) [monocaprin]
Activity against H. pylori (H. pylori): most active

CCCCCCCCCCCC(=O)OCC(O)CO (stereo not drawn) [monolaurin]
Inhibition of coliform (coliform): more than 90%
Activity against H. pylori (H. pylori): most active
Effect on C. trachomatis (C. trachomatis): negligible effect
Inhibition of Pseudomonas spp (Pseudomonas spp): more than 90%
